The values that follow come from patent US20190255011A1, “INHIBITION OF TUMOUR CELL MIGRATION” (GW Pharma Limited, priority 2004, published 2019).

For series [1], the system named is U87 human glioma cells. Briefly: cell viability at the concentrations used in the migration assay. The class given is cell-based. The following applies: range of CBD concentrations used (0.01 μM to 9 μM).
Series [2] relates to U87 human glioma cells. As to the kind of experiment: cell migration assay in modified Boyden chamber. The class given is cell-based. Here is the method:
Cannabidiol (CBD) in the form of a botanical drug substance was dissolved in ethanol to a concentration of 100 mM this was stored at −20° C. until required.
Before use the CBD was further diluted with tissue culture medium to the desired concentration, ensuring that the concentration of ethanol was below 0.001%.
U87 human glioma cells were used throughout this experiment. The cells were maintained at 37° C. in a humidified atmosphere with 5% CO2 and 95% air.
Cells were cultured in a 75 cm^2 culture flask in Dulbecco's Modified Eagle Medium (DMEM), which had been supplemented with 4 mM L-glutamine, 100 units/ml penicillin, […], 1% sodium pyruvate, 1% non-essential amino acids and 10% heat-inactivated fetal bovine serum.
A cell migration assay was undertaken with the U87 cells in a 48 well, modified Boyden chamber in which upper and lower compartments were separated by a polycarbonate filter with a pore diameter of 8 μm coated with 15 μg/ml of fibronectin. Conditioned medium (CM) served as a chemoattractant. The CM was made by incubating a subconfluent culture of U87 cells with complete medium for 3 days.
The coated filter was placed over the bottom chamber, which contained the conditioned medium. Serum-free medium was used as a negative control.
U87 cells were treated with either CBD or vehicle for 30 minutes and then seeded in the upper chamber at a concentration of 3×10^4 cells per well and incubated for 6 hours at 37° C.
After the incubation the non-migrated cells on the upper surface of the filter were removed by scraping and the migrated cells on the lower side of the filter were stained with Diff-Quick Stain. Between 5 and 8 unit fields per filter were counted at 400× magnification.
As is shown in FIG. 1 cells were exposed to an increased concentration of CBD in a range starting from 0.01 μM to 9 μM and their migration was evaluated after 6 hours. The degree of inhibition of cell migration is expressed as a percentage of inhibition versus vehicle treatment (maximal stimulation).

Series [3] deals with U87 human glioma cell line. The conditions noted are these: cited from earlier work.
In series [4] the test system is U373 human glioma cell line. The following applies: cited from earlier work.
Series [5] relates to U87 human glioma cells subcutaneously implanted to nude mice. The following applies: cited from earlier work.
Series [6] deals with U87 human glioma cells. As to the kind of experiment: cell migration assay with pre-treatment by CB1 and CB2 receptor antagonists. The class given is cell-based. The following applies: antagonist 0.1 μM and 1 μM, 30 minutes pre-treatment, then CBD 6 μM. The procedure: In order to determine whether the CBD-induced inhibition of cell migration as described in Example 1 above was dependant on the stimulation of these receptors the cell migration assay was performed with specific antagonists selective to CB1 and CB2 receptors. These are SR141716A and SR144528 respectively.
U87 human glioma cells were firstly pre-treated with the antagonists for 30 minutes and then treated with the CBD for an additional 30 minutes before seeding in the upper chamber of the Boyden chamber.
The cell migration assay was performed using a CBD concentration of 6 μM (shown in Example 1 to inhibit 50% migration. The CB1 and CB2 receptor antagonists were tested at concentrations of 0.1 μM and 1 μM, at these concentrations cell viability was not affected.

One may read the inhibition as the change of the read-out against control, counted positive when it falls. The low end stands for a weak effect, the high end for a strong effect. Regarding `C=C(C)[C@@H]1CCC(C)=C[C@H]1c1c(O)cc(CCCCC)cc1O` [CBD, cannabidiol], the cell viability entry in the series on U87 human glioma cells [1] is listed as “did not alter cell viability”. In addition, the inhibition of migration result with U87 human glioma cells [2] (CBD added to culture medium of U87 cells) is recorded as “concentration-dependant inhibition of migration”. In the series with U87 human glioma cells [2] (Homo sapiens, Glioma cell, CBD concentration of 6 μM), this compound had an inhibition at 6 µM of 50%. Moreover, in the series with U87 human glioma cells [2] (Homo sapiens, U-87 MG, U87 cells, CBD 0.01 μM to 9 μM, migration evaluated after 6 hours, versus vehicle treatment, read-out: IC50 of inhibition of cell migration), the IC50 worked out at 5.05 ± 1.1 µM. In addition, the anti-proliferative effects in-vitro entry in series [3] and in series [4] was “anti-proliferative effects” each time. Further, the anti-proliferative effects in-vivo entry in series [5] is “anti-proliferative effects”.
On to `Cc1c(C(=O)NN2CCCCC2)nn(-c2ccc(Cl)cc2Cl)c1-c1ccc(Cl)cc1` [SR141716], for which, in the series with U87 human glioma cells [6], the “effect of antagonist pre-treatment on CBD-induced inhibition of migration” value is given as “not prevented”.
The same measure, in the same setting: the result for SR144528 reads “not prevented”.
